Test results as given in patent publication US20200288710A1, “SUBSTITUTED SULPHONAMIDES FOR CONTROLLING ANIMAL PESTS” (BAYER CROPSCIENCE AKTIENGESELLSCHAFT, priority 2016, published 2020).
Read-outs that look alike come from different tables or passages of the source.

Assays:
Myzus persicae [1] = test: Myzus persicae spray test (Chinese cabbage leaf discs); assay type: in vivo; conditions: foliar, 120 h, 500 g/ha, after 5-6 days, read-out: efficacy
Summary of the method: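 Formulated compound in acetone/dimethylformamide, diluted in water with 1000 ppm emulsifier, was sprayed onto Brassica pekinensis leaf discs carrying mixed-stage Myzus persicae. Percent mortality was read 5-6 days later (0% = no aphids killed, 100% = all killed).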

Myzus persicae [2] = test: Myzus persicae oral test; assay type: in vivo; conditions: 120 h, 20 ppm, oral uptake, after 5 days, read-out: efficacy
Summary of the method: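 Aphids of mixed ages imbibe, through parafilm, compound solution (acetone stock, water-diluted) combined with sugar-supplemented IPL41 medium to 200 μl. Efficacy read at day 5 as percent killed, 0% meaning no deaths.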

Phaedon cochleariae = Phaedon cochleariae spray test; assay type: in vivo; conditions: foliar, 168 h, Chinese cabbage leaf discs, larvae, after 7 days, read-out: efficacy
Summary of the method: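 Mortality of beetle larvae scored at day 7, expressed as % (0% none killed, 100% all). Formulation: compound in solvent, made up and further diluted with emulsifier-containing water (1000 ppm emulsifier).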

Meloidogyne incognita = Meloidogyne incognita test; assay type: in vivo; conditions: 336 h, lettuce, after 14 days, read-out: nematicidal efficacy (formation of galls)
Summary of the method: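 Gall formation on lettuce roots scored after 14 days: 0% means gall count equals untreated control, 100% means none. Sand vessels held the compound (acetone concentrate diluted in water), southern root-knot nematode egg/larvae suspension and lettuce seeds.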

Musca domestica = Musca domestica test; assay type: in vivo; conditions: 48 h, adult houseflies, after 2 days, read-out: efficacy (kill in %)
Description: Musca domestica Test Solvent: dimethyl sulphoxide To produce a suitable preparation of active compound, 10 mg of active compound are mixed with 0.5 ml of dimethyl sulphoxide, and the concentrate is diluted with water to the desired concentration. Vessels containing a sponge treated with sugar solution and the active compound preparation of the desired concentration are populated with 10 adult houseflies (Musca domestica). After 2 days, the kill in % is determined. 100% means that all of the flies have been killed; 0% means that none of the flies have been killed.

Lucilia cuprina = Lucilia cuprina test; assay type: in vivo; conditions: 48 h, L1 larvae, after 2 days, read-out: efficacy (kill in %)
Description: Lucilia cuprina Test Solvent: dimethyl sulphoxide To produce a suitable preparation of active compound, 10 mg of active compound are mixed with 0.5 ml of dimethyl sulphoxide, and the concentrate is diluted with water to the desired concentration. About 20 L1 larvae of the Australian sheep blowfly (Lucilia cuprina) are transferred into a test vessel containing minced horsemeat and the active compound preparation of the desired concentration. After 2 days, the kill in % is determined. 100% means that all the larvae have been killed; 0% means that no larvae have been killed.

[3] = log P by HPLC on reversed-phase column (EEC Directive 79/831 Annex V.A8); assay type: physicochemical; conditions: reversed-phase HPLC column (C18)
Description: The log P values were determined according to EEC Directive 79/831 Annex V.A8 by HPLC (highperformance liquid chromatography) on a reversed-phase column (C18). Temperature 43° C. The calibration is effected with unbranched alkan-2-ones (having 3 to 16 carbon atoms), for which the log P values are known. The determination of the M^+ by LC-MS in the acidic range was carried out at pH 2.7 using the mobile phases 0.1% aqueous formic acid and acetonitrile (contains 0.1% formic acid); linear gradient from 10% acetonitrile to 95% acetonitrile, instrument: Agilent 1100 LC system, Agilent MSD system, HTS PAL. The determination of the M^+ by LC-MS in the neutral range was carried out at pH 7.8 using the mobile phases 0.001 molar aqueous ammonium bicarbonate solution and acetonitrile; linear gradient from 10% acetonitrile to 95% acetonitrile. The log P values for the acidic range (as log P [a]) and/or for the neutral range (as log P [n]) were stated in the tables and preparation examples.

[4] = neutral range, pH 7.8, HPLC C18, 43° C., read-out: log P (neutral)

Row | Structure (SMILES) | pest or weed control at 500 g/ha (Myzus persicae [1]) | pest or weed control at 20 ppm (Myzus persicae [2]) | pest or weed control at 500 g/ha (Phaedon cochleariae) | pest or weed control at 20 ppm (Meloidogyne incognita) | pest or weed control at 100 ppm (Musca domestica) | pest or weed control at 100 ppm (Lucilia cuprina) | chromatographic logP [3, 4] | chromatographic logP ([3]; acidic range, pH 2.7, HPLC C18, 43° C., read-out: log P (acidic))
1 | Cn1cc(C(=O)NS(=O)(=O)c2ccccc2Br)nc1-c1c(F)cccc1Cl [Example 152] | 90% | 100% | 100% | 100% | 80% |  |  | 
2 | COc1ccc(Cl)c(S(=O)(=O)NC(=O)c2cn(C)c(-c3c(F)cccc3Cl)n2)c1 [Example 107] | 100% | 100% | 100% |  | 100% | 100% |  | 
3 | CCc1cccc(C(F)(F)F)c1S(=O)(=O)NC(=O)c1cn(C)c(-c2c(F)cccc2F)n1 [Example 337] | 90% | 100% | 100% | 90% | 80% |  |  | 
4 | COc1ccc(OC)c(S(=O)(=O)NC(=O)c2cn(C)c(-c3c(F)cccc3Cl)n2)c1 [Example 151] | 100% |  |  |  | 100% |  |  | 
5 | CCc1ccccc1S(=O)(=O)NC(=O)c1cn(C)c(-c2c(F)cccc2F)n1 [Example 185] | 100% | 100% |  | 90% | 80% |  |  | 
6 | COc1ccc(F)cc1S(=O)(=O)NC(=O)c1cn(C)c(-c2c(F)cccc2Cl)n1 [Example 155] | 90% | 100% |  |  | 80% |  |  | 
7 | Cc1ccc(Cl)cc1S(=O)(=O)NC(=O)c1cn(C)c(-c2c(F)cccc2F)n1 [Example 172] | 90% | 100% | 100% | 100% | 90% |  |  | 
8 | Cn1cc(C(=O)NS(=O)(=O)c2ccc(Cl)cc2Cl)nc1-c1c(F)cccc1F [Example 174] | 100% | 100% | 83% | 100% | 90% |  |  | 
9 | Cc1ccccc1S(=O)(=O)NC(=O)c1cn(C)c(-c2ccccc2F)n1 [Example 32] | 90% | 100% |  | 90% | 80% |  |  | 
10 | Cn1cc(C(=O)NS(=O)(=O)c2cc(C(F)(F)F)ccc2Cl)nc1-c1ccccc1Cl [Example 52] | 90% | 100% |  | 90% | 80% |  |  | 
11 | Cn1cc(C(=O)O)nc1-c1c(F)cccc1F [2-(2,6-difluorophenyl)-1-methyl-1H-imidazole-4-carboxylic acid] |  |  |  |  |  |  | 2.3 | 
12 | Cn1cc(C(=O)OC(C)(C)C)nc1Br [tert-butyl 2-bromo-1-methyl-1H-imidazole-4-carboxylate] |  |  |  |  |  |  |  | 2.41
13 | Cc1cccc(Cl)c1S(=O)(=O)NC(=O)c1cn(C)c(-c2ncccc2Cl)n1 [Example 576] | 100% | 100% | 100% |  | 100% | 100% |  | 
14 | Cn1cc(C(=O)OC(C)(C)C)nc1-c1c(F)cccc1F [tert-butyl 2-(2,6-difluorophenyl)-1-methyl-1H-imidazole-4-carboxylate] |  |  |  |  |  |  | 2.3 | 
15 | COc1ccc(Br)c(S(=O)(=O)NC(=O)c2cn(C)c(-c3c(F)cccc3Cl)n2)c1 [Example 153] | 100% | 100% | 100% | 90% | 80% |  |  | 
16 | Cn1cncc1C(=O)OC(C)(C)C [tert-butyl 1-methyl-1H-imidazole-5-carboxylate] |  |  |  |  |  |  | 1.71 | 
17 | CCOC(=O)c1nc(Br)n(C)c1C [Ethyl 2-Bromo-1,5-Dimethyl-1H-Imidazole-4-Carboxylate] |  |  |  |  |  |  | 1.69 | 
